16 compounds from ChEMBL document CHEMBL4177727, “Synthesis and biological evaluation of 1-amino isochromans from 2-bromoethyl benzaldehyde and amines in acid medium” (2018) can be followed below.

Holding throughout (type): functional
Common to all, as to conditions: read-out: IZ

The test system of one assay is Escherichia coli. The experiment in a line: Antibacterial activity against Escherichia coli MTCC 443 at 1 ug/ml under overnight incubation condition by paper disc method.
In the next assay the test system is Pseudomonas aeruginosa. In words: Antibacterial activity against Pseudomonas aeruginosa MTCC 424 at 1 ug/ml under overnight incubation condition by paper disc method.
The next assay has as its system Staphylococcus aureus. The experiment in a line: Antibacterial activity against Staphylococcus aureus MTCC 96 at 1 ug/ml under overnight incubation condition by paper disc method.
The next assay deals with Bacillus subtilis. In words: Antibacterial activity against Bacillus subtilis MTCC 441 at 1 ug/ml under overnight incubation condition by paper disc method.

Regarding `Fc1ccc(-c2cnc(NC3OCCc4ccccc43)s2)cc1` (stereo not given), the zone of inhibition at 1 µg/mL with Escherichia coli was determined as 6 mm; with Pseudomonas aeruginosa, 5 mm; with Staphylococcus aureus, 3 mm; in the assay on Bacillus subtilis, 2.5 mm.

`CCOc1ccc2nc(NC3OCCc4ccccc43)sc2c1` (stereo not given): the zone of inhibition at 1 µg/mL in the assay with Escherichia coli stood at 6.5 mm; in the assay on Pseudomonas aeruginosa, 5 mm; with Staphylococcus aureus, 6 mm; with Bacillus subtilis it was 7.5 mm.

Take `FC(F)(F)c1ccc2nc(NC3OCCc4ccccc43)sc2c1` (stereo not given): the zone of inhibition at 1 µg/mL in the assay on Escherichia coli, in the assay with Pseudomonas aeruginosa, in the assay on Staphylococcus aureus and in the assay on Bacillus subtilis was 2.5 mm each time.

Regarding `CC1COc2c(N3CCN(C)CC3)c(F)cc3c(=O)c(C(=O)O)cn1c23` (stereo not given) [OFLOXACIN], the zone of inhibition at 1 µg/mL in the assay with Escherichia coli was determined as 11 mm; in the assay on Bacillus subtilis it was 10 mm.

Take `Cc1nc(NC2OCCc3ccccc32)sc1-c1ccccc1` (stereo not given): the zone of inhibition at 1 µg/mL worked out at 2.5 mm in the assay with Escherichia coli, 3 mm in the assay with Pseudomonas aeruginosa, 2.5 mm with Staphylococcus aureus and 2.5 mm with Bacillus subtilis.

For the compound `O=[N+]([O-])c1ccc(NC2OCCc3ccccc32)cc1` (stereo not given), the zone of inhibition at 1 µg/mL worked out at 4.5 mm in the assay on Escherichia coli, 4 mm in the assay with Pseudomonas aeruginosa, 3 mm in the assay with Staphylococcus aureus and 5 mm in the assay on Bacillus subtilis.

As for `c1ccc2c(c1)CCOC2Nc1nc2ccccc2s1` (stereo not given), the zone of inhibition at 1 µg/mL in the assay with Escherichia coli came out at 2.5 mm; in the assay on Pseudomonas aeruginosa it was 3 mm; in the assay with Staphylococcus aureus it was 3 mm; in the assay on Bacillus subtilis, 2.5 mm.

As for `Cc1ccc2nc(NC3OCCc4ccccc43)sc2c1` (stereo not given), the zone of inhibition at 1 µg/mL with Escherichia coli, in the assay with Pseudomonas aeruginosa, in the assay with Staphylococcus aureus and with Bacillus subtilis was 2.5 mm in each case.

On to `Cc1cc(Br)cnc1NCCc1ccccc1C=O`, for which the zone of inhibition at 1 µg/mL in the assay with Escherichia coli was determined as 3.5 mm; in the assay with Pseudomonas aeruginosa, 5 mm; in the assay on Staphylococcus aureus, 4 mm; with Bacillus subtilis, 3 mm.

For `CCn1cc(C(=O)O)c(=O)c2cc(F)c(N3CCNCC3)cc21` [NORFLOXACIN], the zone of inhibition at 1 µg/mL in the assay on Pseudomonas aeruginosa was found to be 9.5 mm; in the assay on Staphylococcus aureus, 7 mm.

Take `COc1cccc2sc(NC3OCCc4ccccc43)nc12` (stereo not given): the zone of inhibition at 1 µg/mL is 3 mm with Escherichia coli, 4 mm in the assay with Pseudomonas aeruginosa, 2.5 mm in the assay with Staphylococcus aureus and 3 mm with Bacillus subtilis.

For `Fc1nc(NC2OCCc3ccccc32)sc1F` (stereo not given), the zone of inhibition at 1 µg/mL in the assay on Escherichia coli is 3 mm; in the assay on Pseudomonas aeruginosa, 4 mm; in the assay on Staphylococcus aureus, 3 mm; with Bacillus subtilis, 3 mm.

Consider `Fc1ccc2nc(NC3OCCc4ccccc43)sc2c1` (stereo not given), for which the zone of inhibition at 1 µg/mL in the assay with Escherichia coli was 4 mm; with Pseudomonas aeruginosa, 3 mm; in the assay on Staphylococcus aureus it was 2.5 mm; in the assay on Bacillus subtilis, 4.5 mm.

Consider `Brc1ccc2nc(NC3OCCc4ccccc43)sc2c1` (stereo not given), for which the zone of inhibition at 1 µg/mL is 2.5 mm in the assay on Escherichia coli, 5 mm in the assay with Pseudomonas aeruginosa, 5 mm with Staphylococcus aureus and 2.5 mm with Bacillus subtilis.

Take `Cc1cccc(NC2OCCc3ccccc32)n1` (stereo not given): the zone of inhibition at 1 µg/mL turned out to be 3 mm with Escherichia coli, 6 mm in the assay with Pseudomonas aeruginosa, 4.5 mm in the assay with Staphylococcus aureus and 4 mm in the assay on Bacillus subtilis.

For the compound `Ic1ccc(NC2OCCc3ccccc32)nc1` (stereo not given), the zone of inhibition at 1 µg/mL with Escherichia coli amounted to 3.5 mm; in the assay on Pseudomonas aeruginosa, 4.5 mm; in the assay with Staphylococcus aureus it was 3 mm; with Bacillus subtilis, 6 mm.
